Source: patent US20040171795A1, “Novel peptides” (priority 2000, published 2004)
Where no end group is shown, it is not given here.

Test: Evaluation of toxicity of the peptide, tail vein administration
Type: in vivo
Details: female BALB/c mouse, 5 mg/kg
Procedure: The peptide of the present invention was administered to a mouse from its tail vein to thereby evaluate its toxicity. The mouse used was a female BALB/c mouse of 5 week old, and the peptide was used at a dose of 5 mg/kg.

LARLLARLLARLLRALLRALLRAL [SEQ ID NO:27]
toxicity after tail vein administration: died immediately after the administration
